Assay results reported in patent publication US5714148A, “Chemical compounds” (Zeneca Limited, priority 1992, dated 1998).

Assay: Unspecified tests of activity
Conditions: tests not specified

O=C(O)CC[C@H](NC(=O)Oc1ccc(N(CCI)CCI)cc1)C(=O)O [Example 33]
activity in tests: good activity
